# Experimental data: patent publication US20050064524A1, “Population of cells utilizable for substance detection and methods and devices using same” (priority 2003, published 2005)
# Columns and labels:
# [1] = system: U937 cells; assay: Specificity of ROS probe DCFH-DA towards hydrogen peroxide and NO donor in labeled cells; type: cell-based; details: FIGS. 22a-b
# Procedure: The pro-monocyte U937 cell line was used as cell culture model. Hydrogen peroxide was used as a source of ROS. Probe loading of cells was measured in bulk and at individual cell level. Probe concentration, loading time and cell washing were determined for the different ROS probes. The kinetics of ROS generation was measured in real time by monitoring sequentially the same individual cells. Photo toxicity induced by repeated excitations was checked. FIGS. 12-17, 18-19 and 20-21a-b show the ability of dihydrorhodamine 123 (DHR), dichlorodihydrofluorescein diacetate (DCFH-DA) and dihydroethidium (DHE), respectively, to detect ROS formation in U937 cells treated with hydrogen peroxide.
# (§1) The specificity of DCFH-DA and DAF-2DA towards ROS and […] respectively, was tested.
# [2] = system: U937 cells; assay: Intracellular NO measurement with DAF-2DA probe in labeled cells; type: cell-based; details: for signal of cells labeled with DAF-2DA (NO probe): FIGS. 22a-b
# Procedure: Fluorescent microscopy and imaging system—Olympus motorized upright epi-fluorescence BX51 microscope, equipped with motorized polarization filters for fluorescence polarization measurements was used. Cells were illuminated by a Mercury light source. The emitted fluorescence was imaged by CoolSNAP HQ monochrome CCD camera, or DVC-1312 (DVC Company, West Austin, Tex., USA) color camera. Digital image analysis of cellular fluorescence was performed by Image Pro plus software (Media Cybernetics. Inc. Silver Spring, Md.,USA).
# Quantitative measurements of intracellular NO concentration in individual U937 cells were effected in response to incubation in the presence of the Diethylene triamine NONOate ([…]) donor (0.1-1 mM). The loading of cells with probe was measured in bulk at the individual cell level. Probe concentration loading time and cell washing were determined. The kinetic of NO generation was measured in real time by sequentially monitoring the same individual cells. Photo-toxicity induced by repeated excitations was checked and subtracted. Time response of NO generation in the presence or absence of DETA/NO donor (0.5 mM) in U937 cells labeled with DAF-2DA (10 μM, 15 min) is shown in FIG. 3. […] Quantitative measurements of intracellular NO levels in individual living cells labeled with DAF-2DA and treated with DETA/NO are shown in FIGS. 7a-b and 8a-b.
# as §1
# [3] = system: individual live cell; details: hydrogen peroxide stimulus, FIG. 27
# Procedure: Measurement of intracellular ROS in live cells—The measurement of intracellular reactive oxygen species (ROS) levels was performed using the DHR123 (1-10 μM), DCFDA(1 μM) or DHE (2 μM) probes.
# For probe loading, 100 μl of cells at a concentration of 1.52×10^6 cells/mL in PBS or in serum free media without phenol red were incubated in the presence of the various probes for 15 min at 37° C. and 5% CO2, and then washed twice in PBS and thereafter exposed to either LPC (10-20 μM), MTX (50 nM) or H2O2 (10-500 μM).
smiles,measurement,setting,value
"NCCN(CCN)/[N+]([O-])=N/O [DETA/NO, Diethylene triamine NONOate]",signal of cells labeled with DCFH-DA (ROS probe),[1],only a minor response
same,intracellular NO generation in U937 cells in response to donor,"[2]; U937 cells labeled with DAF-2DA (10 μM, 15 min), donor 0.1-1 mM",accumulate NO
same,signal of cells labeled with DAF-2DA (NO probe),[2],strong signal
OO [hydrogen peroxide],signal of cells labeled with DCFH-DA (ROS probe),[1],strong and quantifiable signal
same,signal of cells labeled with DAF-2DA (NO probe),[2],background signal
same,temporal relationship between ROS generation (DHR) and onset of changes in mitochondrial membrane potential (TMRM),[3],Hyperpolarization of mitochondrial membrane potential preceded the increase in ROS level
